From patent US20230096528A1, “Pharmaceutical Composition for Treatment or Prevention of Multiple Inflammatory disorders” (priority 2019, published 2023)

Assays:
[1] = test system: leptin-deficient (ob/ob) mice; test: Denatonium acetate on body weight in leptin-deficient (ob/ob) mice (Example 1); type: in vivo
Protocol: This example describes an in vivo study of denatonium acetate on body weight in leptin-deficient (ob/ob) mice. Adult leptin-deficient mice (homozygote, ob/ob mice) fed with high-fat diet. There was a vehicle control group (15 mice) that were treated with distilled water by gavage BID. […] Body weights and body weight changes were determined at days 1, 3, 7, 10, 14, 21, 24 and 28. Food intake was determined on days 3, 7, 10, 14, 17, 21, […] and 28. On day 28 blood samples were taken for cytokine analysis, HbA1c, HDL, LDL, insulin, and bile acids.

[2] = test system: murine air pouch model of inflammation; test: Murine air pouch model of inflammation, LPS induction (Example 2); type: in vivo, C57BL/6 mice
Protocol: This example provides the results of investigating DA to modulate immune response in a murine air pouch model of inflammation. […] What was measured was infiltrating cell counts with air pouch exudates, IL-6 levels in air pouch exudates by an ELISA assay (R&D Systems Cat. No. M6000B), and multiple cytokine analysis (Mouse 32Plex Kit MilliporeSigma Cat. No. MCYTMAG70PMX32BK).
Duarte et al., Current Protocols in Pharmacology, 5.6.1-5.6.8 Mar. 2012, describes “The subcutaneous air pouch is an in vivo model that can be used to study acute and chronic inflammation, the resolution of the inflammatory response, and the oxidative stress response. Injection of irritants into an air pouch in rats or mice induces an inflammatory response that can be quantified by the volume of exudate produced, the infiltration of cells, and the release of inflammatory mediators. The model presented in this unit has been extensively used to identify potential anti-inflammatory drugs.” It can be used to study localized inflammation without systemic effects. But in this case the drug was administered orally, by gavage BID.
Test administration was 5 ml/kg body weight BID dosing with 8 hour intervals. The air pouch was created in each test BL6 mouse by sc injection of 1.5 ml/mouse of sterile air on day 0 and 1.5 ml/mouse of sterile air on day 3. Compounds (or control distilled water) were administered BID on day −2. LPS (0.75 mg/animal in 1 ml endotoxin free PBS) was administered at hour 0 or one hour after dosing with test compounds. Plasma samples were collected at termination and exudates of the air pouches for all groups. Cell count analysis and IL-6 assays were conducted at the animal facility and plasma and exudate samples were sent out for cytokine analysis.

[3] = test system: microbial populations in a nonalcoholic steatohepatitis (NASH) mouse model; test: Microbiome study in NASH mouse model on AMLN diet (Example 4); type: in vivo, C57BL/6 mice
Text: There were changes in the microbiome in a mice model using a high-fat diet after 4 weeks of treatment with and without administering DA orally. The high fat diet itself induced extensive changes in the microbial populations in all groups. Importantly though, there was a pronounced difference between the DA treatment group and the control group at week 4.
Classifications of the different organisms that changed in the control and treatment groups at 4 weeks and observed extensive changes in the primary or dominant phylum groups of bacteria, as well as on a family and genus level were made. […] The diversity at 4 weeks dropped over the study course in both control and treatment group due to dietary impact.
The genetic potential of treatment-induced changes in relation to predicted physiological and metabolic pathways were aligned with observed benefits of treatment with DA with regards to attenuating inflammation and metabolic syndrome. The majority of the pathways being impacted were directly related to a decrease in inflammation and are known to be beneficial to cardiovascular health and other conditions related to the metabolic syndrome in humans. Observations included: • Increased metabolism of unsaturated fatty acids • Increased metabolism of arachidonic acid • Increased metabolism of cofactors and vitamins • Increased lysine degradation • Increased glycolysis and gluconeogenesis • Increased phosphatidylinositol signaling • Decreased arginine and ornithine metabolism Below Changes from Phylum à Family à Genus Level
The effect of a small molecule oral TAS2R agonist (DA) was investigated on microbial populations in a nonalcoholic steatohepatitis (NASH) mouse model. Two groups of 4-week-old male C57BL/6 mice (20/group) were fed Amylin Liver NASH (AMLN) diet and received daily doses of ARD-101 (30 mg/mL in water) or vehicle (water) via intragastric gavage. DNA was isolated from fecal samples collected at week 0 and 4, and microbial ecology was evaluated using bTEFAP (bacterial tag-encoded FLX amplicon pyrosequencing). Operational taxonomic units were classified using BLAST against a curated NCBI database. Diversity within specific ecosystems and microbial community structures was analyzed with Qiime 2. Differences were determined by repeated measures ANOVA and post hoc pairwise comparisons using Tukey's test. Taxonomic classification data were evaluated with a dual hierarchal dendrogram.

[4] = test system: mouse acute lung injury plus hyperthermia model; test: Mouse acute lung injury plus hyperthermia model (Example 7); type: in vivo; settings: LPS plus hyperthermia, CD-1 mice
Protocol: Lung lavage fluid was measured and cytokine analysis.

[5] = 23.1 mg/kg BID gavage, vs vehicle
[6] = 23.1 mg/kg BID gavage, vs vehicle, no statistically significant difference
[7] = 96.4 mg/kg BID gavage pre-treatment, LPS, vs vehicle
[8] = higher dose of DA, air pouch model, LPS
[9] = AMLN diet mice, daily gavage, week 4, DA vs vehicle
[10] = treatment at 4 weeks versus baseline and control

## CC(=O)[O-].CC[N+](CC)(CC(=O)Nc1c(C)cccc1C)Cc1ccccc1 [DA, denatonium acetate]
[1]; [5]
  Blood HDL level at day 28: statistically significant decrease
  Blood HbA1c levels at day 28: no statistically significant difference
  Blood LDL cholesterol levels at day 28: no statistically significant difference
  Blood bile acid levels at day 28: no statistically significant difference
  Blood insulin levels at day 28: no statistically significant difference
  Blood total cholesterol level (LDL plus HDL) at day 28: almost significant decrease
  Body weight change at day 28: no statistically significant difference
  Cumulative food consumption over 28 days: no statistically significant difference
  Fasting blood glucose level at day 28: no statistically significant difference
  GM-CSF in blood at day 28: significant decreases
  IFNγ in blood at day 28: significant decreases
  IL-5 in blood at day 28: significant decreases
  IL-10 in blood at day 28: significant decreases
  IL-12 in blood at day 28: significant decreases
  KC/CXCL1 in blood at day 28: significant decreases
  M-CSF in blood at day 28: significant decreases
[1]; [6]
  Change in granulocyte number, pre-dose to day 28: trend of increasing change
  Change in lymphocyte and white blood cell numbers and percentage, pre-dose to day 28: trend of increasing change
  Change in monocyte number and percentage, pre-dose to day 28: trend of increasing change
[1]; 28 days, DA vs vehicle
  Average daily individual food intake: no difference
[1]; compared to vehicle-treated controls
  Body weight after treatment for 28 days: noticeable body weight decrease
[2]; [7]
  IL-6 levels in air pouch exudates: significantly lower
  Infiltrating cell count in air pouch exudates: significantly lower
[2]; [8]
  IL-1b cytokine level: significant reduction
  IL-10 cytokine level: significant reduction
  IL-17 cytokine level: significant reduction
  TNF-1a cytokine level: significant reduction
[2]; pre-treatment by gavage BID, in a dose-dependent manner
  Infiltrating cell counts in air pouch exudates following LPS induction: decreased
[3]; 4-week DA treatment
  Microbiome pathways for biosynthesis of unsaturated fatty acids: significant enrichment
  Microbiome pathways for glycolysis and gluconeogenesis: significant enrichment
  Microbiome pathways for lysine degradation: significant enrichment
  Microbiome pathways for metabolism of arachidonic acid: significant enrichment
  Microbiome pathways for metabolism of cofactors and vitamins: significant enrichment
  Microbiome phosphatidylinositol signaling: significant enrichment
  Microbiome signaling for arginine and ornithine metabolism: significantly decreased
[3]; AMLN diet mice, DA treatment
  SCFAs in feces: mitigated the diet-induced decrease
[3]; AMLN diet mice, daily gavage (30 mg/mL in water), week 4, DA vs vehicle
  Proteobacteria (phylum) in fecal microbiome: significant increases
[3]; [9]
  Cyanobacteria (phylum) in fecal microbiome: significant increases
  Deferribacteres (phylum) in fecal microbiome: significant decreases
  Firmicutes (phylum) in fecal microbiome: significant decreases
  Spirochetes (phylum) in fecal microbiome: significant decreases
  Verrucomicrobia (phylum) in fecal microbiome: significant increases
[3]; DA versus vehicle group at week 4, p<0.05
  Diversity within ecosystems and microbial communities: significantly less diversity
[3]; [10]
  Barnesiella (genus) in microbiome: Significantly Decreased
  Brenneria (genus) in microbiome: Significantly Increased
  Candidatus soleaferrea (genus) in microbiome: Significantly Decreased
  Clostridium (genus) in microbiome: Significantly Decreased
  Dehalobacterium (genus) in microbiome: Significantly Decreased
  Dorea (genus) in microbiome: Significantly Decreased
  Erysipelatoclostridium (genus) in microbiome: Significantly Increased
  Escherichia (genus) in microbiome: Significantly Increased
  Flavonifractor (genus) in microbiome: Significantly Decreased
  Lachnoclostridium (genus) in microbiome: Significantly Decreased
  Oscillibacter (genus) in microbiome: Significantly Decreased
  Oscillospira (genus) in microbiome: Significantly Decreased
  Parabacteroides (genus) in microbiome: Significantly Increased
  Peptoclostridium (genus) in microbiome: Significantly Increased
  Shigella (genus) in microbiome: Significantly Increased
  Sutterella (genus) in microbiome: Significantly Increased
[3]; week 4, not marked as significant
  Bacteroidetes (phylum) in microbiome: decreased
[4]; iv bolus 3 mg/kg QD
  Protein concentration in lung lavage fluid: drastic but not significantly reduced
[4]; oral 92.4 mg/kg BID
  Protein concentration in lung lavage fluid: drastic but not significantly reduced
